For this assay, the target named is T1, human TRPV4 (Homo sapiens, UniProt Q9HBA0).
T1 construct: expressed in transfected cells; host or cells: HEK293 MSRII cells (BacMam transduction)
Put plainly: Ligand-gated assay: FLIPR assay for human TRPV4 expressed in HEK293 MSRII cells. Format: cell-based. Particulars: HEK293 MSRII cells transduced with BacMam virus expressing human TRPV4; Fluo-4 calcium signal; agonist at EC80; read-out: activity (inhibition of Agonist Compound-induced calcium signal). The text has this: FLIPR Assay for Human TRPV4 Expressed in HEK293 MSRII Cells
TRPV4 channel activation results in an influx of divalent and monovalent cations including calcium. The resulting changes in intracellular calcium were monitored using a calcium specific fluorescent dye Fluo-4 (MDS Analytical Technologies). HEK293 MSRII cells (human embryonic kidney 293 cells stably expressing the macrophage scavenger receptor class II) transduced with BacMam virus expressing the human TRPV4 gene at 1% final concentration were plated in a 384 well poly-D lysine coated plate (15,000 cells/well in 50 μL culture medium containing DMEM/F12 with 15 mM HEPES, 10% FBS, 1% Penicillin-Streptomycin and 1% L-glutamine). Cells were incubated for 24-72 hours at 37° C. and 5% CO2. Culture medium was then aspirated using a Tecan plate-washer and replaced with 20 μL/well of dye loading buffer: HBSS, 500 μM Brilliant Black (MDS Analytical Technologies), and 2 μM Fluo-4 AM. Dye loaded plates were then incubated in the dark at room temperature for 1-1.5 hours. […] Calcium signals were measured using FLIPR^TETRA (MDS Analytical Technologies) or FLIPR384 (MDS Analytical Technologies) and the inhibition of Agonist Compound-induced calcium signal by the test compound was determined.

T1 sequence (Q9HBA0 whole entry): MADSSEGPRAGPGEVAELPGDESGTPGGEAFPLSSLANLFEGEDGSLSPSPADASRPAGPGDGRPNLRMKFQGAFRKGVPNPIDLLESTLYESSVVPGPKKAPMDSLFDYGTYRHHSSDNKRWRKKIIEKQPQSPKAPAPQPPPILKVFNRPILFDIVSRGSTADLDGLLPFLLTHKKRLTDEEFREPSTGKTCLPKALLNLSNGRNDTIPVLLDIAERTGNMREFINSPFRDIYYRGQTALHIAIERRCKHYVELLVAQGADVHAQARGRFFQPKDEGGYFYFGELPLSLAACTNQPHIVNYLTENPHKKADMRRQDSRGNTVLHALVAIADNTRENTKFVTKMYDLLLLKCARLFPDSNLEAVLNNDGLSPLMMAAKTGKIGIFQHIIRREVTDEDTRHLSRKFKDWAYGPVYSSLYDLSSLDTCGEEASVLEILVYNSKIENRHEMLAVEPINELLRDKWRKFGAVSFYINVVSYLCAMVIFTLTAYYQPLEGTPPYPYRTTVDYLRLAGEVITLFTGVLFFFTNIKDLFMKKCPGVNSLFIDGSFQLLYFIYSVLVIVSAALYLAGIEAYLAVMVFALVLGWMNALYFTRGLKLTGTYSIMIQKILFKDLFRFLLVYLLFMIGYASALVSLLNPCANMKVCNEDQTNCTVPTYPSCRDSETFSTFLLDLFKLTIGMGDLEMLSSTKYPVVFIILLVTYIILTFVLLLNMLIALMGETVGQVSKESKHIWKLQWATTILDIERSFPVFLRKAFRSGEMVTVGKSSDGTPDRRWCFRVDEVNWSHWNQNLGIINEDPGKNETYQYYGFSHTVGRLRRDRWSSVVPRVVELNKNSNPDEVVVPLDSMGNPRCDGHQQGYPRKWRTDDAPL

On to `N#Cc1ccc2ncn(C[C@@]3(O)CCC[C@@]4(CN(c5cnc(C6CC6)cn5)C(=O)O4)C3)c2c1` [Compound A, 1-(((5S,7R)-3-(5-cyclopropylpyrazin-2-yl)-7-hydroxy-2-oxo-1-oxa-3-azaspiro[4.5]decan-7-yl)methyl)-1H-benzo[d]imidazole-6-carbonitrile], for which the IC50 is 6.3 nM.

The values are drawn from patent US10968209B2, “TRPV4 antagonist” (GlaxoSmithKline Intellectual Property (No.2) Limited, priority 2016, dated 2021).
